Here are results for 68 sequences from the supplement of paper PMC11208160.
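Also: IS621 bridge recombinase in Escherichia coli cells against a fixed T5 target plasmid.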

The data set can be described thus: recombinant UMI read abundance after kanamycin selection (control-corrected) (log10(CPM+1)); higher = more efficient recombination; extreme values may be limits of the assay; sequences stand for … in AGTGCAGAGAAAATCGGCCAGTTTTCTCTGCCTGCAGTCCGCATGCCGTGGGACCCCTTGGGTTCTAACCTGTTGCCTAGATTTATGCAGCGGACTGCCTTTCTCCCAAAGTGATAAACCGG…AGGTTGGTTTCACT; site = the 11-nt donor. Summed up: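 In Escherichia coli, a pool of donor and donor-binding-loop pairs, each with a 12-nt UMI, was tested for the IS621 bridge recombinase. Plating was on IPTG (0.07 mM) plus kanamycin, or without selection, in two replicates. Recombinant UMIs were amplified by PCR across the donor–target junction and sequenced, and counts were reported as log10(CPM+1) after averaging and control-derived scaling.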
For “TAGCTATCATGGACCGGTTTTCCCGGTAATCCGTATTTGAA (site TAGCTACCTTT)”, the “recombinant UMI read abundance (log10)” value came out at 0.0124.
In the case of “TAGCTATCATGGACCGGTTTTCCCGGTAATCCGTATTTGAA (site TAGCTAGCTTT)”, the “recombinant UMI read abundance (log10)” value came out at 0.00959.
Consider “TAGCTATCATGGACCGGTTTTCCCGGTAATCCGTATTTGAA (site TAGCTATCTTT)”, for which the “recombinant UMI read abundance (log10)” value is 2.02.
Then “TAGCTCACATGGACCGGTTTTCCCGGTAATCCGTATTTGAT (site AAGCTCACTAT)”, with 0.00391; and “TAGCTCACATGGACCGGTTTTCCCGGTAATCCGTATTTGAT (site CAGCTCACTAT)”, with 0.61; and “TAGCTCACATGGACCGGTTTTCCCGGTAATCCGTATTTGAT (site GAGCTCACTAT)”, with 0.0104.
“TAGCTCACATGGACCGGTTTTCCCGGTAATCCGTATTTGAT (site TAGCTCACTAT)”: the “recombinant UMI read abundance (log10)” value came to 1.47.
As to “TAGGAATCATGGACCGGTTTTCCCGGTAATCCGTATTTGGG (site TAGGAATCTCA)”, the “recombinant UMI read abundance (log10)” value amounted to 0.407.
Next, “TAGGAATCATGGACCGGTTTTCCCGGTAATCCGTATTTGGG (site TAGGAATCTCC)”: 1.79; “TAGGAATCATGGACCGGTTTTCCCGGTAATCCGTATTTGGG (site TAGGAATCTCG)”: 0.
Take “TAGGAATCATGGACCGGTTTTCCCGGTAATCCGTATTTGGG (site TAGGAATCTCT)”: the “recombinant UMI read abundance (log10)” value was determined as 0.56.
Next, “TAGGATACATGGACCGGTTTTCCCGGTAATCCGTATTTGCA (site TAGAATACTTG)”: 1.71.
As for “TAGGATACATGGACCGGTTTTCCCGGTAATCCGTATTTGCA (site TAGCATACTTG)”, the “recombinant UMI read abundance (log10)” value turned out to be 0.852.
Take “TAGGATACATGGACCGGTTTTCCCGGTAATCCGTATTTGCA (site TAGGATACTTG)”: the “recombinant UMI read abundance (log10)” value was found to be 3.06.
Consider “TAGGATACATGGACCGGTTTTCCCGGTAATCCGTATTTGCA (site TAGTATACTTG)”, for which the “recombinant UMI read abundance (log10)” value was 1.44.
As to “TAGGATTCATGGACCGGTTTTCCCGGTAATCCGTATTTGCG (site TAGGAATCTCG)”, the “recombinant UMI read abundance (log10)” value stood at 1.73.
As for “TAGGATTCATGGACCGGTTTTCCCGGTAATCCGTATTTGCG (site TAGGACTCTCG)”, the “recombinant UMI read abundance (log10)” value amounted to 1.68.
As to “TAGGATTCATGGACCGGTTTTCCCGGTAATCCGTATTTGCG (site TAGGAGTCTCG)”, the “recombinant UMI read abundance (log10)” value was found to be 0.435.
In the case of “TAGGATTCATGGACCGGTTTTCCCGGTAATCCGTATTTGCG (site TAGGATTCTCG)”, the “recombinant UMI read abundance (log10)” value was determined as 2.94.
As to “TAGGCAACATGGACCGGTTTTCCCGGTAATCCGTATTTGCA (site TAGGCAACTTG)”, the “recombinant UMI read abundance (log10)” value was 0.0204.
As to “TAGGCATCATGGACCGGTTTTCCCGGTAATCCGTATTTGCG (site TAGGAATCTCG)”, the “recombinant UMI read abundance (log10)” value was 0.
Then “TAGGCATCATGGACCGGTTTTCCCGGTAATCCGTATTTGCG (site TAGGCATCTCG)”, with 1.31.
In the case of “TAGGCATCATGGACCGGTTTTCCCGGTAATCCGTATTTGCG (site TAGGGATCTCG)”, the “recombinant UMI read abundance (log10)” value stood at 0.00568.
With “TAGGCATCATGGACCGGTTTTCCCGGTAATCCGTATTTGCG (site TAGGTATCTCG)”, the “recombinant UMI read abundance (log10)” value was found to be 0.449.
Then “TAGGGGACATGGACCGGTTTTCCCGGTAATCCGTATTTGAA (site TAGGGGACTTT)”, with 1.24.
“TAGGTAGCATGGACCGGTTTTCCCGGTAATCCGTATTTGAA (site TAGATAGCTTT)”: the “recombinant UMI read abundance (log10)” value was determined as 0.894.
On to “TAGGTAGCATGGACCGGTTTTCCCGGTAATCCGTATTTGAA (site TAGCTAGCTTT)”, for which the “recombinant UMI read abundance (log10)” value came out at 0.00863.
Then “TAGGTAGCATGGACCGGTTTTCCCGGTAATCCGTATTTGAA (site TAGGTAGCTTT)”, with 1.67; and “TAGGTAGCATGGACCGGTTTTCCCGGTAATCCGTATTTGAA (site TAGTTAGCTTT)”, with 0.0108; and “TAGGTATCATGGACCGGTTTTCCCGGTAATCCGTATTTGCG (site TAGGAATCTCG)”, with 1.02.
Regarding “TAGGTATCATGGACCGGTTTTCCCGGTAATCCGTATTTGCG (site TAGGCATCTCG)”, the “recombinant UMI read abundance (log10)” value stood at 1.3.
Then “TAGGTATCATGGACCGGTTTTCCCGGTAATCCGTATTTGCG (site TAGGGATCTCG)”, with 1.7; and “TAGGTATCATGGACCGGTTTTCCCGGTAATCCGTATTTGCG (site TAGGTATCTCG)”, with 2.92.
For the sequence “TAGGTTGCATGGACCGGTTTTCCCGGTAATCCGTATTTGGC (site TAGGTTGCTGC)”, the “recombinant UMI read abundance (log10)” value was determined as 2.62.
Turning to “TAGTACTCATGGACCGGTTTTCCCGGTAATCCGTATTTGCT (site TAGTACTCTAG)”, the “recombinant UMI read abundance (log10)” value came to 2.94.
Regarding “TAGTAGTCATGGACCGGTTTTCCCGGTAATCCGTATTTGGG (site TAGTAGTCTCC)”, the “recombinant UMI read abundance (log10)” value turned out to be 0.369.
As to “TAGTCGACATGGACCGGTTTTCCCGGTAATCCGTATTTGGG (site AAGTCGACTCC)”, the “recombinant UMI read abundance (log10)” value is 0.0151.
Next, “TAGTCGACATGGACCGGTTTTCCCGGTAATCCGTATTTGGG (site CAGTCGACTCC)”: 0.0191; “TAGTCGACATGGACCGGTTTTCCCGGTAATCCGTATTTGGG (site GAGTCGACTCC)”: 0.0292.
With “TAGTCGACATGGACCGGTTTTCCCGGTAATCCGTATTTGGG (site TAGTCGACTCC)”, the “recombinant UMI read abundance (log10)” value was 0.0301.
Consider “TAGTCGGCATGGACCGGTTTTCCCGGTAATCCGTATTTGAT (site TAGTCGGCTAT)”, for which the “recombinant UMI read abundance (log10)” value worked out at 0.387.
Then “TAGTTAGCATGGACCGGTTTTCCCGGTAATCCGTATTTGAA (site TAGATAGCTTT)”, with 0.0157.
As to “TAGTTAGCATGGACCGGTTTTCCCGGTAATCCGTATTTGAA (site TAGCTAGCTTT)”, the “recombinant UMI read abundance (log10)” value came out at 0.407.
Then “TAGTTAGCATGGACCGGTTTTCCCGGTAATCCGTATTTGAA (site TAGGTAGCTTT)”, with 0.00722; and “TAGTTAGCATGGACCGGTTTTCCCGGTAATCCGTATTTGAA (site TAGTTAGCTTT)”, with 1.33.
In the case of “TATAACTCATGGACCGGTTTTCCCGGTAATCCGTATTTGGC (site TATAACTCTGC)”, the “recombinant UMI read abundance (log10)” value amounted to 1.35.
As to “TATACACCATGGACCGGTTTTCCCGGTAATCCGTATTTGAC (site TATACACCTGT)”, the “recombinant UMI read abundance (log10)” value stood at 0.
In the case of “TATACACCATGGACCGGTTTTCCCGGTAATCCGTATTTGAC (site TCTACACCTGT)”, the “recombinant UMI read abundance (log10)” value came to 0.0077.
Turning to “TATACACCATGGACCGGTTTTCCCGGTAATCCGTATTTGAC (site TGTACACCTGT)”, the “recombinant UMI read abundance (log10)” value was found to be 0.
For “TATACACCATGGACCGGTTTTCCCGGTAATCCGTATTTGAC (site TTTACACCTGT)”, the “recombinant UMI read abundance (log10)” value came out at 0.
Next, “TATATCTCATGGACCGGTTTTCCCGGTAATCCGTATTTGAA (site TATATCTCTTT)”: 0.835; “TATATCTCATGGACCGGTTTTCCCGGTAATCCGTATTTGTA (site TATATCTCTTA)”: 1.93; “TATCCTCCATGGACCGGTTTTCCCGGTAATCCGTATTTGTT (site TATCCTCCTAA)”: 0.0195.
Next, “TATCCTTCATGGACCGGTTTTCCCGGTAATCCGTATTTGGT (site TAACCTTCTAC)”: 0.00593; “TATCCTTCATGGACCGGTTTTCCCGGTAATCCGTATTTGGT (site TACCCTTCTAC)”: 0.0066.
Then “TATCCTTCATGGACCGGTTTTCCCGGTAATCCGTATTTGGT (site TAGCCTTCTAC)”, with 0.0208.
Consider “TATCCTTCATGGACCGGTTTTCCCGGTAATCCGTATTTGGT (site TATCCTTCTAC)”, for which the “recombinant UMI read abundance (log10)” value was 0.31.
For the sequence “TATCGATCATGGACCGGTTTTCCCGGTAATCCGTATTTGAC (site TATCGATCTGT)”, the “recombinant UMI read abundance (log10)” value came to 1.86.
In the case of “TATCTAGCATGGACCGGTTTTCCCGGTAATCCGTATTTGAA (site TAACTAGCTTT)”, the “recombinant UMI read abundance (log10)” value amounted to 0.0105.
For the sequence “TATCTAGCATGGACCGGTTTTCCCGGTAATCCGTATTTGAA (site TACCTAGCTTT)”, the “recombinant UMI read abundance (log10)” value stood at 0.131.
Take “TATCTAGCATGGACCGGTTTTCCCGGTAATCCGTATTTGAA (site TAGCTAGCTTT)”: the “recombinant UMI read abundance (log10)” value was 0.00935.
Take “TATCTAGCATGGACCGGTTTTCCCGGTAATCCGTATTTGAA (site TATCTAGCTTT)”: the “recombinant UMI read abundance (log10)” value is 0.502.
Take “TATCTATCATGGACCGGTTTTCCCGGTAATCCGTATTTGTC (site TATCTATCTGA)”: the “recombinant UMI read abundance (log10)” value was found to be 1.59.
“TATCTCGCATGGACCGGTTTTCCCGGTAATCCGTATTTGCA (site TATCTCGCTTG)”: the “recombinant UMI read abundance (log10)” value was 0.374.
As for “TATCTGGCATGGACCGGTTTTCCCGGTAATCCGTATTTGTG (site TATATGGCTCA)”, the “recombinant UMI read abundance (log10)” value was 0.0189.
Turning to “TATCTGGCATGGACCGGTTTTCCCGGTAATCCGTATTTGTG (site TATCTGGCTCA)”, the “recombinant UMI read abundance (log10)” value was 0.0196.
With “TATCTGGCATGGACCGGTTTTCCCGGTAATCCGTATTTGTG (site TATGTGGCTCA)”, the “recombinant UMI read abundance (log10)” value came out at 0.00259.
With “TATCTGGCATGGACCGGTTTTCCCGGTAATCCGTATTTGTG (site TATTTGGCTCA)”, the “recombinant UMI read abundance (log10)” value is 0.00973.
